Calls of active or inactive are those of the source. The calls are words filed in the database; no cut-off is given here.
Each compound was assayed against T1, Prostaglandin G/H synthase 1 (Ovis aries, UniProt P05979) (assay: Inhibitory activity (RA1) against Prostaglandin G/H synthase 1 was calculated relative to aspirin).
T1 sequence (P05979 whole entry): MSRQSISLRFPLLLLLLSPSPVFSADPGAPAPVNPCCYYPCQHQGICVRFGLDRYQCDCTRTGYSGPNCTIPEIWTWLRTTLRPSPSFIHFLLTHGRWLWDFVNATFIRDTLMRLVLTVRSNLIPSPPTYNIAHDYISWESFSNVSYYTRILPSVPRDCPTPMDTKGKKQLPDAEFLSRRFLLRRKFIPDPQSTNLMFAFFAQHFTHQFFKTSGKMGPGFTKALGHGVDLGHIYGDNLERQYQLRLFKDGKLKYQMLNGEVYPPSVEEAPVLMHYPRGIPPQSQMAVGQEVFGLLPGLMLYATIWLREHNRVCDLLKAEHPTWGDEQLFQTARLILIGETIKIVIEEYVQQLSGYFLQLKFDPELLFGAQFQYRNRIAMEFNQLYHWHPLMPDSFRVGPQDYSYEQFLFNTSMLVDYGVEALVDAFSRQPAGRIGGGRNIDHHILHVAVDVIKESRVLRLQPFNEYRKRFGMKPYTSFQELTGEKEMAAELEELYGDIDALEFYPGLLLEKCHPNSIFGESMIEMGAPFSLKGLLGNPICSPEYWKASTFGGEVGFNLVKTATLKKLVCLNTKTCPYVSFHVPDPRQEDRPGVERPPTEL

IC50	Structure (SMILES)
Not Active	C[C@]1(N2C(=O)c3ccccc3C2=O)CCC(=O)NC1=O

The compounds below were run against T2, Prostaglandin G/H synthase 1 (Ovis aries) (UniProt P05979) (assay: Selective index (SI) which is the ratio of IC50 of Prostaglandin G/H synthase 1 / […]).
T2 sequence (whole entry): T1 sequence (P05979 whole entry)

Structure (SMILES)	Ratio
COc1cc(OC)nc(N2C(=O)Cc3ccccc3C2=O)n1	0.38
COc1cc(C)nc(N2C(=O)Cc3ccccc3C2=O)n1	0.45
C[C@@]1(N2C(=O)c3ccccc3C2=O)CCC(=O)NC1=O	2.56
O=C1CCC(N2C(=O)c3ccccc3C2=O)C(=O)N1 (stereo unspecified)	1.23
C[C@@]1(N2C(=O)c3cccc(N)c3C2=O)CCC(=O)NC1=O	11.1
Cc1cc(C)c(C)c(N2C(=O)c3ccccc3C2=O)c1C	4.16
O=C1c2ccccc2C(=O)N1CCn1ccc(=O)[nH]c1=O	0.44
O=C1c2ccccc2C(=O)N1c1cnc(O)nc1O	7.69
C[C@@]1(N2C(=O)c3ccc([N+](=O)[O-])cc3C2=O)CCC(=O)NC1=O	2.63

Next, values leading:

Ratio	Structure (SMILES)
2.14	Cc1cc(C)cc(N2C(=O)c3ccccc3C2=O)c1
4.05	Cc1cc(C)c(C)c(N2C(=O)c3ccccc3C2=O)c1
0.45	Cc1cc(C)nc(N2C(=O)Cc3ccccc3C2=O)n1
0.39	Cc1cc(C)cc(N2C(=O)Cc3ccccc3C2=O)c1
1.43	O=C1NCCCC1N1C(=O)c2ccccc2C1=O (stereo unspecified)
0.23	C[C@@]1(N2C(=O)c3cccc([N+](=O)[O-])c3C2=O)CCC(=O)NC1=O
0.51	Cc1cc(C)nc(N2C(=O)Cc3ccccc3C2=O)c1
1.45	O=C1CCN(N2C(=O)c3ccccc3C2=O)C(=O)N1
< 0.07	C[C@@]1(N2C(=O)c3ccc(N)cc3C2=O)CCC(=O)NC1=O

The compounds below were run against T2, Prostaglandin G/H synthase 1 (Ovis aries) (assay: Selective index (SI) which is the ratio of IC50 of Prostaglandin G/H synthase 1 / […]; IN=Inactive).

Ratio	Structure (SMILES)
inactive	C[C@]1(N2C(=O)c3ccccc3C2=O)CCC(=O)NC1=O

The compounds below were run against T3, Prostaglandin G/H synthase 2 (Ovis aries, UniProt P79208) (assay: Inhibitory activity (RA2) against Prostaglandin G/H synthase 2 was calculated relative to aspirin).
T3 sequence (P79208 whole entry): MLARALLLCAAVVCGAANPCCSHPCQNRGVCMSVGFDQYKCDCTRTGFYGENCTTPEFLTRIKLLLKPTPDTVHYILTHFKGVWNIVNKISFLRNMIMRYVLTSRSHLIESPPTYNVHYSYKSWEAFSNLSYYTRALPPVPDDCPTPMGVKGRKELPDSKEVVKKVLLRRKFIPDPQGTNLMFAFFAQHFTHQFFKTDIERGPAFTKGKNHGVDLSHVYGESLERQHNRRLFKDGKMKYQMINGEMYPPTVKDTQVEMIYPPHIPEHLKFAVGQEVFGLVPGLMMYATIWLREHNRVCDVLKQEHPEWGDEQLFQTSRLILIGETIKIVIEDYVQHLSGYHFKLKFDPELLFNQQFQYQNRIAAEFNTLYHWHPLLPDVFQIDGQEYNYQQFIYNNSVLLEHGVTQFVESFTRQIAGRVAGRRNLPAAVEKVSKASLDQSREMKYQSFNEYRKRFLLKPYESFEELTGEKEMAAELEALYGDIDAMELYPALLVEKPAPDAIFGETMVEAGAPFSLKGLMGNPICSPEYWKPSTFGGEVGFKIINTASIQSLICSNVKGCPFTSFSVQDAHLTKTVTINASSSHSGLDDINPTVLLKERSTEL

IC50	Structure (SMILES)
Not Active	C[C@]1(N2C(=O)c3ccccc3C2=O)CCC(=O)NC1=O

Source: ChEMBL document CHEMBL1135264, “Thalidomide and its analogues as cyclooxygenase inhibitors” (Bioorg Med Chem Lett, 2002)
